# In patent publication US20250302973A1, “POLYMER CONJUGATES OF DRUGS WITH CENTRAL NERVOUS SYSTEM (CNS) EFFECTS AND […] BLOCKING ACTIVITY AND/OR IMMUNE SYSTEM […]” (UNIVERSITY OF PADOVA, priority 2022, published 2025):
# Tests used:
# C57BL6/J male mice = test: Open field test, total locomotor activity as distance travelled; type: in vivo; conditions: intraperitoneal 0.3 mg/kg MK-801 or equivalent dose, test 10 min after injection, compared with vehicle, n=7 per group
# Description: The present inventors used 7 C57BL6/J male (3-4 months old) mice per treatment group, keeping them in a temperature-controlled room (22° C.) on a 12:12 h light-dark cycle (light on at 7:00 AM) and fed a standard pellet diet and tap water ad libitum. Experimental mice were habituated to the testing room by transferring them to the behavioural room 30 min prior to beginning of the test. The open field test was conducted between 9:00 am and 4:00 pm. MK-801 and derivatives were dissolved in a vehicle composed by 0.9% NaCl physiological solution. Each mouse was singly placed at the corner of a grey-painted open field arena (40×40×30 cm) 10 min after the intraperitoneal injection (Volume of injection 0.1 mL) of either Vehicle, 0.3 mg/kg MK-801, or the equivalent dose of 0.3 mg/kg MK-801 of the PEG 4 MK-801, PEG 6 MK-801, PEG 8 MK-801 or PEG 10 MK-801 derivatives. Using an automated behavioral tracking system (Videotrack, View Point Life Science), we determined the total locomotor activity measured as distance travelled by the animal during the 10 min duration of the test.
# A-549 cells = test: A-549 lung cells co-cultured 24 hours with THP-1-derived macrophages, mRNA expression of inflammatory cytokines; conditions: 1 μM; A-549 cells incubated (co-culture) with macrophages derived from THP-1 cells; effect only in presence of macrophages
SMILES,distance travelled by the mice during 10 min in the Open Field Test (C57BL6/J male mice),mRNA expression of the inflammatory cytokine CCL-2 (A-549 cells),mRNA expression of the inflammatory cytokine IL-1β (A-549 cells)
"C[C@]12N[C@H](Cc3ccccc31)c1ccccc12 [MK-801, dizocilpine]",significantly increased,reduces,reduces
"CCC(=O)C(C[C@H](C)N(C)C)(c1ccccc1)c1ccccc1 [esmethadone, (S)-methadone]",–,reduces,reduces
